Reference: patent publication US8524909B2, “Tetrahydro-pyran derivatives” (Hoffmann-La Roche Inc., priority 2010, dated 2013)

What follows are compounds tested against mGlyT-1b (Mus musculus (Mouse), UniProt P28571) (assay: Glycine Uptake Inhibition Assay (mGlyT-1b)). Settings: [3H]-glycine uptake in Flp-in-CHO cells stably transfected with mGlyT1b cDNA; 20 min preincubation at 22° C.
mGlyT-1b, sequence (P28571 other isoform, or with tags, fused parts or gaps isoform P28571-2): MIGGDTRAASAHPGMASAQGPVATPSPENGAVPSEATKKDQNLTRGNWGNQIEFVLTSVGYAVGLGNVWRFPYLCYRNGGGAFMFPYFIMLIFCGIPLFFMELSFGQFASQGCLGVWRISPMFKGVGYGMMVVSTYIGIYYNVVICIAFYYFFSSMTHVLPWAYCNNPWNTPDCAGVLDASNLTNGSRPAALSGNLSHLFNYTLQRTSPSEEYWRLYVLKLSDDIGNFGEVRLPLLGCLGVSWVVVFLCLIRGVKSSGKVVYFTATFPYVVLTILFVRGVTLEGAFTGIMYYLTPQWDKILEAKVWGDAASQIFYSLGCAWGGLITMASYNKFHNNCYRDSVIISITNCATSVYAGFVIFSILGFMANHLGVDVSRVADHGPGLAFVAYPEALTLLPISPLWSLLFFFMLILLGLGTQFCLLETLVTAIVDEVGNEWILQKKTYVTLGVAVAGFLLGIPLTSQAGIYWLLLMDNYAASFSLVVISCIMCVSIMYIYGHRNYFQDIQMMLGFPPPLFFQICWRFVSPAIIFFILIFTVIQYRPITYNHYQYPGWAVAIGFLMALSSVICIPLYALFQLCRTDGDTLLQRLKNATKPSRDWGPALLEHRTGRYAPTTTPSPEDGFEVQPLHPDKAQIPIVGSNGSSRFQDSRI
Assay type: cell-based
Experimental: DMEM complete medium: Nutrient mixture F-12 (Gibco Life-technologies), fetal bovine serum (FBS) 5%, (Gibco life technologies), Penicillin/Streptomycin 1% (Gibco life technologies), Hygromycin 0.6 mg/ml (Gibco life technologies), Glutamine 1 mM Gibco life technologies)
Uptake buffer (UB): 150 mM NaCl, 10 mM Hepes-Tris, pH 7.4, 1 mM CaCl2, 2.5 mM KCl, 2.5 mM MgSO4, 10 mM (+) D-glucose.
Flp-in™-CHO (Invitrogen Cat no R758-07) cells stably transfected with mGlyT1b cDNA.
Glycine Uptake Inhibition Assay (mGlyT-1b)
On day 1 mammalian cells, (Flp-in™-CHO), transfected with mGlyT-1b cDNA, were plated at the density of 40,000 cells/well in complete F-12 medium, without hygromycin in 96-well culture plates. On day 2, the medium was aspirated and the cells were washed twice with uptake buffer (UB). The cells were then incubated for 20 min at 22° C. with either (i) no potential competitor, (ii) 10 mM non-radioactive glycine, (iii) a concentration of a potential inhibitor. A range of concentrations of the potential inhibitor was used to generate data for calculating the concentration of inhibitor resulting in 50% of the effect (e.g. IC50, the concentration of the competitor inhibiting glycine uptake of 50%). A solution was then immediately added containing [^3H]-glycine 60 nM (11-16 Ci/mmol) and 25 μM non-radioactive glycine. The plates were incubated with gentle shaking and the reaction was stopped by aspiration of the mixture and washing (three times) with ice-cold UB. The cells were lysed with scintillation liquid, shaken 3 hours and the radioactivity in the cells was counted using a scintillation counter.
COc1cc(C(F)(F)F)cc(SC)c1C(=O)N[C@H]1COCC[C@H]1N1CCCC1 (racemic) [Example 1, 2-Methoxy-6-methylsulfanyl-N-((3RS,4RS)-4-pyrrolidin-1-yl-tetrahydro-pyran-3-yl)-4-trifluoromethyl-benzamide] showed an IC50 of 261 nM.
In the case of COc1cc(C(F)(F)F)cc(SC)c1C(=O)N[C@H]1COCC[C@@H]1N1CCCC1 (racemic) [Example 2, 2-Methoxy-6-methylsulfanyl-N-((3RS,4SR)-4-pyrrolidin-1-yl-tetrahydro-pyran-3-yl)-4-trifluoromethyl-benzamide], the IC50 is reported as 66.2 nM.
COc1cc(C(F)(F)F)cc(SC)c1C(=O)N[C@H]1COCC[C@H]1NC1CCC1 (racemic) [Example 3, N-((3RS,4RS)-4-Cyclobutylamino-tetrahydro-pyran-3-yl)-2-methoxy-6-methylsulfanyl-4-trifluoromethyl-benzamide] gave an IC50 of 506 nM.
With COc1cc(C(F)(F)F)cc(SC)c1C(=O)N[C@H]1COCC[C@@H]1NC1CCC1 (racemic) [Example 4, N-((3RS,4SR)-4-Cyclobutylamino-tetrahydro-pyran-3-yl)-2-methoxy-6-methylsulfanyl-4-trifluoromethyl-benzamide] the IC50 was 337 nM.
In the case of COc1cc(C(F)(F)F)cc(SC)c1C(=O)N[C@H]1COCC[C@@H]1N1CCC(O)C1 (mixture of isomers) [Example 7, N-[(3RS,4SR)-4-(3-Hydroxy-pyrrolidin-1-yl)-tetrahydro-pyran-3-yl]-2-methoxy-6-methylsulfanyl-4-trifluoromethyl-benzamide], the IC50 is reported as 155 nM.
O=C(N[C@@H]1COCC[C@H]1N1CCCC1)c1ccc(C(F)(F)F)cc1C1CC1 (racemic) [Example 8, 2-Cyclopropyl-N-((3SR,4RS)-4-pyrrolidin-1-yl-tetrahydro-pyran-3-yl)-4-trifluoromethyl-benzamide] showed an IC50 of 36.3 nM.
CSc1cc(C(F)(F)F)cc(C(F)(F)F)c1C(=O)N[C@@H]1COCC[C@H]1N1CCCC1 (racemic) [Example 9, 2-Methylsulfanyl-N-((3SR,4RS)-4-pyrrolidin-1-yl-tetrahydro-pyran-3-yl)-4,6-bis-trifluoromethyl-benzamide] gave an IC50 of 16.5 nM.
Work on Cc1cc(C(F)(F)F)cc(C(F)(F)F)c1C(=O)N[C@@H]1COCC[C@H]1N1CCCC1 (racemic) [Example 10, 2-Methyl-N-((3SR,4RS)-4-pyrrolidin-1-yl-tetrahydro-pyran-3-yl)-4,6-bis-trifluoromethyl-benzamide] yielded an IC50 of 41.2 nM.
COc1cc(C(F)(F)F)cc(SC)c1C(=O)N[C@@H]1COCC[C@H]1NC1CCCC1 (racemic) [Example 11, N-((3SR,4RS)-4-Cyclopentylamino-tetrahydro-pyran-3-yl)-2-methoxy-6-methylsulfanyl-4-trifluoromethyl-benzamide] gave an IC50 of 127 nM.
O=C(N[C@@H]1COCC[C@H]1NC1CCCC1)c1ccc(C(F)(F)F)cc1C1CC1 (racemic) [Example 12, N-((3SR,4RS)-4-Cyclopentylamino-tetrahydro-pyran-3-yl)-2-cyclopropyl-4-trifluoromethyl-benzamide] was tested, and the IC50 was 75 nM.
In the case of CSc1cc(C(F)(F)F)cc(C(F)(F)F)c1C(=O)N[C@@H]1COCC[C@H]1NC1CCCC1 (racemic) [Example 13, N-((3SR,4RS)-4-Cyclopentylamino-tetrahydro-pyran-3-yl)-2-methylsulfanyl-4,6-bis-trifluoromethyl-benzamide], the IC50 is reported as 250 nM.
With O=C(N[C@@H]1COCC[C@H]1NC1CCCCC1)c1ccc(C(F)(F)F)cc1C1CC1 (racemic) [Example 14, N-((3SR,4RS)-4-Cyclohexylamino-tetrahydro-pyran-3-yl)-2-cyclopropyl-4-trifluoromethyl-benzamide] the IC50 was 125 nM.
With O=C(N[C@@H]1COCC[C@H]1N1CCCC1)c1c(C2CC2)cc(C(F)(F)F)cc1C(F)(F)F (racemic) [Example 15, 2-Cyclopropyl-N-((3SR,4RS)-4-pyrrolidin-1-yl-tetrahydro-pyran-3-yl)-4,6-bis-trifluoromethyl-benzamide] the IC50 was 13.2 nM.
CC(C)N[C@@H]1CCOC[C@H]1NC(=O)c1ccc(C(F)(F)F)cc1C1CC1 (racemic) [Example 16, Cyclopropyl-N-((3SR,4RS)-4-isopropylamino-tetrahydro-pyran-3-yl)-4-trifluoro-methylbenzamide] gave an IC50 of 296 nM.
In the case of O=C(N[C@@H]1COCC[C@H]1NC1CCOCC1)c1ccc(C(F)(F)F)cc1C1CC1 (racemic) [Example 17, 2-Cyclopropyl-N-[(3SR,4RS)-4-(tetrahydro-pyran-4-ylamino)-tetrahydro-pyran-3-yl]-4-trifluoro-methylbenzamide], the IC50 is reported as 904 nM.
For O=C(N[C@@H]1COCC[C@H]1NCC1CC1)c1ccc(C(F)(F)F)cc1C1CC1 (racemic) [Example 18, Cyclopropyl-N-[(3SR,4RS)-4-(cyclopropyl-methyl-amino)-tetrahydro-pyran-3-yl]-4-trifluoro-methylbenzamide], the IC50 was 126 nM.
O=C(N[C@@H]1COCC[C@H]1N1CCCCC1)c1ccc(C(F)(F)F)cc1C1CC1 (racemic) [Example 19, 2-Cyclopropyl-N-((3SR,4RS)-4-piperidin-1-yl-tetrahydro-pyran-3-yl)-4-trifluoro-methylbenzamide] gave an IC50 of 81.5 nM.
In the case of O=C(N[C@@H]1COCC[C@H]1NC1CC1)c1ccc(C(F)(F)F)cc1C1CC1 (racemic) [Example 20, 2-Cyclopropyl-N-((3SR,4RS)-4-cyclopropylamino-tetrahydro-pyran-3-yl)-4-trifluoromethyl-benzamide], the IC50 is reported as 193 nM.
Cc1cc(C(F)(F)F)cc(C)c1C(=O)N[C@@H]1COCC[C@H]1N1CCCC1 (racemic) [Example 21, 2,6-Dimethyl-N-((3SR,4RS)-4-pyrrolidin-1-yl-tetrahydro-pyran-3-yl)-4-trifluoro-methylbenzamide] gave an IC50 of 45.2 nM.
COc1cc(C(F)(F)F)cc(C)c1C(=O)N[C@@H]1COCC[C@H]1N1CCCC1 (racemic) [Example 22, 2-Methoxy-6-methyl-N-((3SR,4RS)-4-pyrrolidin-1-yl-tetrahydro-pyran-3-yl)-4-trifluoro-methylbenzamide] gave an IC50 of 105 nM.
For CCc1cc(C(F)(F)F)cc(CC)c1C(=O)N[C@@H]1COCC[C@H]1N1CCCC1 (racemic) [Example 23, 2,6-Diethyl-N-((3SR,4RS)-4-pyrrolidin-1-yl-tetrahydro-pyran-3-yl)-4-trifluoro-methylbenzamide], the IC50 was 58.4 nM.
CCc1cc(C(F)(F)F)cc(OC)c1C(=O)N[C@@H]1COCC[C@H]1N1CCCC1 (racemic) [Example 24, 2-Ethyl-6-methoxy-N-((3SR,4RS)-4-pyrrolidin-1-yl-tetrahydro-pyran-3-yl)-4-trifluoro-methyl-benzamide] gave an IC50 of 64.1 nM.
In the case of COc1cc(C(F)(F)F)cc(SC)c1C(=O)N[C@@H]1COCC[C@H]1NC1(C)CCCCC1 (racemic) [Example 25, 2-Methoxy-N-[(3SR,4RS)-4-(1-methyl-cyclohexyl-amino)-tetrahydro-pyran-3-yl]-6-methyl-sulfanyl-4-trifluoromethyl-benzamide], the IC50 is reported as 278 nM.
CCc1cc(C(F)(F)F)cc(C)c1C(=O)N[C@@H]1COCC[C@H]1N1CCCC1 (racemic) [Example 26, 2-Ethyl-6-methyl-N-((3SR,4RS)-4-pyrrolidin-1-yl-tetrahydro-pyran-3-yl)-4-trifluoro-methyl-benzamide] gave an IC50 of 17.9 nM.
COc1cc(C(F)(F)F)cc(C2CC2)c1C(=O)N[C@@H]1COCC[C@H]1N1CCCC1 (racemic) [Example 27, Cyclopropyl-6-methoxy-N-((3SR,4RS) 4 pyrrolidin-1-yl-tetrahydro-pyran-3-yl)-4-trifluoro-methyl-benzamide] gave an IC50 of 14.7 nM.
In the case of COc1cc(C(F)(F)F)cc(SC)c1C(=O)N[C@@H]1COCC[C@H]1NC1(C)CCCC1 (racemic) [Example 28, 2-Methoxy-N-[(3SR,4RS)-4-(1-methyl-cyclo-pentylamino)-tetrahydro-pyran-3-yl]-6-methyl-sulfanyl-4-trifluoromethyl-benzamide], the IC50 is reported as 144 nM.
In the case of CC1(N[C@@H]2CCOC[C@H]2NC(=O)c2ccc(C(F)(F)F)cc2C2CC2)CCCC1 (racemic) [Example 29, 2-Cyclopropyl-N-[(3SR,4RS)-4-(1-methyl-cyclo-pentyl-amino)tetra-hydro-pyran-3-yl]-4-trifluoromethyl-benzamide], the IC50 is reported as 235 nM.
CC(N[C@@H]1CCOC[C@H]1NC(=O)c1ccc(C(F)(F)F)cc1C1CC1)C1CC1 (mixture of isomers) [Example 30, 2-Cyclopropyl-N-[(3RS,4SR)-4-(1-cyclopropyl-ethylamino)-tetrahydro-pyran-3-yl]-4-trifluoro-methylbenzamide] showed an IC50 of 83.8 nM.
Work on COc1cc(C(F)(F)F)cc(SC)c1C(=O)N[C@@H]1COCC[C@H]1NC(C)C1CC1 (mixture of isomers) [Example 31, N-[(3SR,4RS)-4-(1-Cyclopropyl-ethylamino)-tetrahydro-pyran-3-yl]-2-methoxy-6-methylsulfanyl-4-trifluoro-methyl-benzamide] yielded an IC50 of 276 nM.
In the case of O=C(N[C@@H]1COCC[C@H]1NC1CCC1)c1ccc(C(F)(F)F)cc1C1CC1 (racemic) [Example 32, N-((3SR,4RS)-4-Cyclobutylamino-tetrahydro-pyran-3-yl)-2-cyclo-propyl-4-trifluoromethyl-benzamide], the IC50 is reported as 119 nM.
